Read-outs that look alike come from different tables or passages of the source.

This is an account of results in patent US9174980B2, “Heterocyclic compounds as inhibitors of leukotriene production” (Boehringer Ingelheim International GmbH, priority 2012, dated 2015).

The test system of test [1] is biomarkers for myocardial infarction risk. The following applies: clinical trial; cited from earlier work.
The next test has as its system ApoE−/−xCD4dnTβRII mice. The following applies: infusion, treated for four weeks; cited from earlier work.
Test [2] has as its system apoE/LDL-R double knockout mice. The following applies: oral dosing, high-fat diet from 2 months of age to 6 months; cited from earlier work.
The next test deals with human glomerulonephritis. The settings on record: clinical trial; cited from earlier work.
The subject of test [3] is synthesis of LTB4 in human whole blood. The test is described as follows: Human whole blood assay (calcimycin-stimulated LTB4 synthesis). The following applies: read-out: Human Whole Blood LTB4 Assay for FLAP (IC50 nM). Format: cell-based. A digest of the protocol: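 Whole-blood cellular format, heparinized human donors: 15 min compound pretreatment, then 30 min calcimycin stimulation (20 μM final), both at 37° C. Low-speed centrifugation yields plasma, in which LTB4 is read by homogeneous time-resolved fluorescence immunoassay.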

Test [4] addresses T1, recombinant human FLAP protein (Homo sapiens, UniProt P20292).
T1 construct: made in house; host or cells: Sf9 insect cells (membrane fraction, 100,000 x g pellet)
T1 sequence (P20292 1-161): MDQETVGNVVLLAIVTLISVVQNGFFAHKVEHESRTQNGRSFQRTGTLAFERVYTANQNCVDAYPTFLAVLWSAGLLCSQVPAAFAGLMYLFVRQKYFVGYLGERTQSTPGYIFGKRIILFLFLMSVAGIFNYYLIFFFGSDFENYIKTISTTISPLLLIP
The test is described as follows: FLAP binding assay (Scintillation Proximity Assay, displacement of [125I]L-691,831). The following applies: read-out: Human FLAP SPA Binding (IC50 nM). The procedure, abridged:
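Scintillation proximity displacement format: 0.08 nM iodinated MK-591 analog [125I]L-691,831 competes with test compound for human FLAP in sf9 insect-cell membranes (5 μg/well, WGA beads), 2 h with shaking, pH 7.5 Tris buffer. 10 μM cold L-691,831 defines non-specific binding.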
For orientation: SPA uses beads or plates that emit light when radiolabelled molecules are held near them.

As for `O=C(O)[C@@H](c1ccc(OCc2ccc3ccccc3n2)cc1)C1CCCC1` [DG-031], the “effect on biomarkers for myocardial infarction risk” value in test [1] was “dose-dependent suppression of several biomarkers”.

Consider `CC(C)c1ccc2c(c1)c(SC(C)(C)C)c(CC(C)(C)C(=O)O)n2Cc1ccc(Cl)cc1` [MK-886], for which the “decrease in plaque area in the aortic root” value with ApoE−/−xCD4dnTβRII mice is approximately 40%. Further, in test [2], the “decrease in plaque coverage in the aorta” value is given as 56% and the “decrease in plaque coverage in the aortic root” value is 43%.

Take `CC(C)(C)Sc1c(CC(C)(C)C(=O)O)n(Cc2ccc(Cl)cc2)c2ccc(OCc3ccc4ccccc4n3)cc12` [MK-591]: in the test on human glomerulonephritis, the effect on proteinuria result is reported as “reduce proteinuria”. As a reminder, the IC50 is the midpoint of a concentration-inhibition curve. For the molecule `COc1ccc(-c2nnc(C3(c4ccc(-c5cnc(N)nc5)cc4)CCC3)[nH]2)cn1` [Example 144, 5-(4-{1-[5-(6-methoxypyridin-3-yl)-4H-1,2,4-triazol-3-yl]cyclobutyl}phenyl)pyrimidin-2-amine], the IC50 was 2500 nM in test [3] (Homo sapiens) and 4 nM in test [4]. On to `COc1cccc2c(C(C)(c3ccc(-c4cnc(N)nc4)cc3)C(C)C)cn(Cc3ccccn3)c12` (stereo not shown) [Example 51, 5-(4-{2-[7-methoxy-1-(pyridin-2-ylmethyl)-1H-indol-3-yl]-3-methylbutan-2-yl}phenyl)pyrimidin-2-amine], for which the values for the IC50 in test [3] (Homo sapiens) and in test [4] were 840 nM and 2.7 nM, respectively. With `COc1cccc2c(C(C)(c3ccc(-c4cnc(N)nc4)cc3)C(C)C)c[nH]c12` (stereo not shown) [Example 45, 5-{4-[2-(7-methoxy-1H-indol-3-yl)-3-methylbutan-2-yl]phenyl}pyrimidin-2-amine], the figures for the IC50 in test [3] (Homo sapiens) and in test [4] were 260 nM and 1.4 nM, respectively.

As to `Cn1cc(-c2coc([C@@](C)(c3ccc(-c4cnc(N)nc4)cc3)C3CC3)n2)cn1` [Example 185, 5-[4-[(1R)-1-cyclopropyl-1-[4-(1-methylpyrazol-4-yl)oxazol-2-yl]ethyl]phenyl]pyrimidin-2-amine], the figures for the half-maximal inhibitory concentration (IC50) in test [3] (Homo sapiens) and in test [4] were 54 nM and 3.3 nM, respectively. For `CN(C)C(=O)Cn1cc(-c2cc([C@@](C)(c3ccc(-c4cnc(N)nc4)cc3)C3CC3)no2)cn1` [Example 197, 2-[4-(3-{(1R)-1-[4-(2-aminopyrimidin-5-yl)phenyl]-1-cyclopropylethyl}-1,2-oxazol-5-yl)-1H-pyrazol-1-yl]-N,N-dimethylacetamide], in that order: 93 nM and 5.3 nM. With `Cn1cc(-c2coc([C@](C)(c3ccc(-c4cnc(N)nc4)nc3)C3CC3)n2)cn1` [Example 208, 5-(5-{(S)-1-Cyclopropyl-1-[4-(1-methyl-1H-pyrazol-4-yl)-oxazol-2-yl]-ethyl}-pyridin-2-yl)-pyrimidin-2-ylamine], the figures for the half-inhibitory concentration (IC50) in test [3] (Homo sapiens) and in test [4] were 1300 nM and more than 2000 nM, respectively. For `Nc1ncc(-c2ccc(C3(c4c[nH]c5c(C(=O)NCCS(N)(=O)=O)cccc45)CCC3)cc2)cn1` [Example 4, 3-{1-[4-(2-aminopyrimidin-5-yl)phenyl]cyclobutyl}-N-(2-sulfamoylethyl)-1H-indole-7-carboxamide], in that order: 2800 nM and 1.2 nM. Taken in the same sequence, the figures for `Nc1ncc(-c2ccc(C3(c4nc5ncccc5[nH]4)CCC3)cc2)cn1` [Example 125, 5-{4-[1-(1H-imidazo[4,5-b]pyridin-2-yl)cyclobutyl]phenyl}pyrimidin-2-amine] were 3400 nM and 250 nM. Taken in the same sequence, the figures for `Nc1ncc(-c2ccc(C3(c4c[nH]c5cnccc45)CCC3)cc2)cn1` [Example 109, 5-{4-[1-(1H-pyrrolo[2,3-c]pyridin-3-yl)cyclobutyl]phenyl}pyrimidin-2-amine] were 71 nM and 1.3 nM. As to `CC(C)C(C)(c1ccc(-c2cnc(N)nc2)cc1)c1c[nH]c2c(-c3nnc(N)o3)cccc12` (stereo not shown) [Example 76, 5-(4-{2-[7-(5-amino-1,3,4-oxadiazol-2-yl)-1H-indol-3-yl]-3-methylbutan-2-yl}phenyl)pyrimidin-2-amine], the values for the concentration for half-maximal inhibition (IC50) in test [3] (Homo sapiens) and in test [4] were 250 nM and 1.1 nM, respectively. On to `COc1nccc2c(C3(c4ccc(-c5cnc(N)nc5)cc4)CCC3)c[nH]c12` [Example 145, 5-{4-[1-(7-methoxy-1H-pyrrolo[2,3-b]pyridin-3-yl)cyclobutyl]phenyl}pyrimidin-2-amine], for which the IC50 in test [3] turned out to be 150 nM; in test [4], 1.7 nM. Turning to `Nc1ncc(-c2ccc(C3(c4nc5ccccc5s4)CCC3)cc2)cn1` [Example 128, 5-{4-[1-(1,3-benzothiazol-2-yl)cyclobutyl]phenyl}pyrimidin-2-amine], the IC50 was determined as 2300 nM in test [3] (Homo sapiens) and 8.1 nM in test [4].

Consider `CC(C)(O)Cn1cc(-c2coc([C@@](C)(c3ccc(-c4cnc(N)nc4)cc3)C3CC3)n2)cn1` [Example 203, 1-[4-(2-{(R)-1-[4-(2-Amino-pyrimidin-5-yl)-phenyl]-1-cyclopropyl-ethyl}-oxazol-4-yl)-pyrazol-1-yl]-2-methyl-propan-2-ol], for which the results for the 50% inhibitory concentration (IC50) in test [3] (Homo sapiens) and in test [4] were 190 nM and 36 nM, respectively.
